We go through twelve molecules from patent US8680288B2, “Pyridin-2yl sulfanyl acid esters and process for the preparation thereof” (Council of Scientific & Industrial Research, priority 2010, dated 2014).

By IC50 is commonly meant the point on the concentration scale where inhibition reaches its midpoint.

Structures are written as SMILES. Entries after “also recorded” stand apart in the source; their conditions may differ. Like-named read-outs stand apart in the source and are kept apart here.

Data set [1] deals with human umbilical vein endothelial cell (HUVEC). Nature of the data set: Cell viability (MTT) assay on endothelial cells. Format: cell-based. To be noted: Concentration of compounds where >95% cells are viable. The procedure:
(§1) Primary endothelial cells were isolated from human umbilical cord using mild trypsinization (Kumar, S., Arya, P., Mukherjee, C., Singh, B. K., Singh, N., Parmar, V. S., Prasad, A. K., Ghosh, B. Novel Aromatic Ester from Piper longum and Its Analogues Inhibit Expression of Cell Adhesion Molecules on Endothelial Cells. Biochemistry. 2005, 44, 15944-15952). The cells were grown in M199 medium (Sigma, USA) supplemented with 15% heat inactivated fetal calf serum (Biological Industries, Israel), 2 mM L-glutamine (Sigma, USA), 100 units/ml penicillin (Sigma, USA), 100 μg/ml streptomycin (Sigma, USA), 0.25 μg/ml amphotericin B (Sigma, USA), endothelial cell growth factor (50 μg/ml) (Sigma, USA). At confluence, the cells were subcultured using 0.05% trypsin-0.01 M EDTA solution and were used between passages three to four.
The cytotoxicity of these compounds was analyzed by colorimetric MTT (methylthiazolydiphenyl-tetrazolium bromide, Sigma, USA) assay as described (Kumar S et al, 2005). Briefly, endothelial cells were treated with DMSO alone (0.25%, as vehicle) or with different concentrations of compounds for 24 hrs. Four hrs before the end of incubation, medium was removed and 100 μl MTT (5 mg/ml in serum free medium) was added to each well. The MTT was removed after 4 hrs, cells were washed out with PBS (phosphate buffered saline, pH 7.4), and 100 μl DMSO was added to each well to dissolve water insoluble MTT-formazan crystals. Absorbance was recorded at 570 nm in an ELISA reader (Bio-Rad, Model 680, USA). All experiments were performed at least 3 times in triplicate wells.

Data set [2] has as its system adhesion of neutrophils onto human umbilical vein endothelial cells (HUVECs). The data set can be described thus: Neutrophil adhesion assay on LPS-induced endothelial cells (static conditions). The data set is classed as cell-based. The conditions noted are these: LPS (1 μg/ml) 6 hrs; for IC50: HUVEC, read-out: Neutrophil Adhesion Inhibition IC50. The procedure:
as §1
Neutrophils were isolated from peripheral blood of healthy individuals (Kumar S et al, 2005). Blood was collected in heparin solution (20 U/ml) and erythrocytes were removed by sedimentation against 6% dextran solution. Plasma, rich in white blood cells, was layered over Ficoll-Hypaque solution (Sigma, USA), followed by centrifugation (300 g for 20 min, 20° C.). The top saline layer and the Ficoll-Hypaque layer were aspirated leaving neutrophils/RBC pellet. The residual red blood cells were removed by hypotonic lysis. Isolated cells were washed with PBS and resuspended in PBS containing 5 mM glucose, 1 mM CaCl2, and 1 mM MgCl2 at a final concentration of 6×10^5 cells/ml.
Neutrophil adhesion assay was performed under static conditions as described previously (Kumar S et al, 2005). Briefly, endothelial cells plated in 96-well culture plates were incubated with or without RS—Z at desired concentrations for 2 hrs, followed by induction with LPS (1 μg/ml) for 6 hrs. Endothelial monolayers were washed with PBS and neutrophils (6×10^4/well) were added over it and were allowed to adhere for 1 hr at 37° C. The non-adherent neutrophils were washed with PBS and neutrophils bound to endothelial cells were assayed by adding a substrate solution consisting of o-phenylenediamine dihydrochloride (40 mg/100 ml in citrate phosphate buffer, pH 4.5), 0.1% cetrimethyl ammonium bromide, and 3-amino-1,2,4 triazole (1 mM). The absorbance was read at 490 nm using an automated microplate reader (Model 680, Bio-Rad, USA).

In data set [3] the test system is ICAM-1 (Intercellular cell adhesion molecule-1). The data set can be described thus: Cell-ELISA for measurement of LPS-induced ICAM-1 expression on endothelial cells. Format: cell-based. To be noted: LPS (1 μg/ml) 16 hrs, human endothelial cells, read-out: ICAM-1 inhibition IC50. The protocol:
as §1
Cell-ELISA was used for measuring the expression of ICAM-1 on surface of endothelial cells (Kumar S et al, 2005) Endothelial cells were incubated with or without the test compounds at desired concentrations for the required period, followed by treatment with LPS (1 μg/ml) (BD, USA) for 16 hrs for ICAM-1 expression. The cells were fixed with 1.0% glutaraldehyde (Sigma, USA). Non-specific binding of antibody was blocked by using skimmed milk (3.0% in PBS). Cells were incubated overnight at 4° C. with anti-ICAM-1 mAb (BD, USA), diluted in blocking buffer, the cells were further washed with PBS and incubated with peroxidase-conjugated goat anti-mouse secondary antibody (Sigma, USA). After washings, cells were exposed to the peroxidase substrate (o-phenylenediamine dihydrochloride 40 mg/100 ml in citrate phosphate buffer, pH 4.5). Reaction was stopped by the addition of 2 N sulfuric acid and absorbance at 490 nm was measured using microplate reader (Spectramax 190, Molecular Devices, USA).
(ELISA stands for enzyme-linked immunosorbent assay.)

In another data set the test system is acute lung Injury model. The conditions noted are these: literature reference; cited from earlier work.
Data set [4] has as its system LPS induced acute lung injury. The data set can be described thus: LPS aerosol induced acute lung injury model in mice (BALF cell counts, lung injury score). The data set is classed as in vivo. The conditions noted are these: for Neutrophil count in the BALF / neutrophil influx in the lungs / Lung injury score / LPS-induced lung injury: post-treatment i.p. 0.1, 1.0 and 10 mg/kg; for Neutrophil count in the BALF / neutrophil influx in the lungs: FIG. 2B; for Lung injury score / LPS-induced lung injury: FIG. 3. The protocol: BALB/c male mice 10 weeks old were randomly divided into 5 groups with 6 mice in each group.
Group 1: saline challenged/vehicle (0.25% CMC) treated
Group 2: LPS challenged/vehicle treated
Group 3: LPS challenged/RS—Z (0.1 mg/kg in 0.25% CMC) treated
Group 4: LPS challenged/RS—Z (1 mg/kg in 0.25% CMC) treated
Group 5: LPS challenged/RS—Z (10 mg/kg in 0.25% CMC) treated
Mice in Groups 2, 3, 4 and 5 were challenged with an aerosol of LPS (E. coli strain 026:B6) at a concentration of 300 μg/ml in normal saline for 30 minutes. Mice were placed in a Plexiglas chamber (20×20×10 cm^3) and exposed to an aerosol generated from a nebulizer (Omtron model, USA) with an airflow rate of 9 L/min. Group 1(Control) mice were challenged with saline alone.
Mice were treated with either vehicle or RS—Z thirty minutes after the LPS challenge. Mice in group 1 (control) and Group 2 (LPS challenged) were vehicle (0.25% CMC) treated intraperitoneally (i.p.). Mice in Group 3 were treated with RS—Z at a dose of 0.1 mg/kg body weight by i.p. injection. Mice in Group 4 were treated with RS—Z at a dose of 1.0 mg/kg body weight by i.p. injection. Group 5 were treated with RS—Z at a dose of 10 mg/kg body weight by i.p. injection.
Mice were sacrificed three hrs after the LPS challenge using an overdose of sodium pentothal (100 mg/kg, i.p.). The trachea were cannulated and 0.5 ml of PBS (phosphate buffered saline) was used for lavage at a time and this step was repeated three times. About 1.5 ml of BAL fluid was recovered per mouse. The BAL fluid was centrifuged (400×g, 4° C., 6 min) and the supernatant was kept at −70° C. until analyzed for biochemical parameters. The BAL cells were washed three times with PBS and the pellet was resuspended in 200 μl cold PBS. For total cell counts, BAL cell suspension was diluted 1:20 in PBS and cells were counted in a hemocytometer. For differential counts, BALF cell suspension smear was made on glass slides followed by Leishman's stain. The cells were identified and counted by standard methodology. At least 300 cell (all types) per slide were counted and the percentage of neutrophils was calculated.
The excised lung portions from all the groups was fixed in 10% Buffered formalin. The fixed tissue was embedded in paraffin, sectioned into 4 μm and stained with haematoxylin-eosin for observation under the light microscope. The injury was scored with a semi-quantitative grading system based on the structure changes edema, alveolar and interstitial hemorrhage and inflammatory cells sequestration (Matthay M A, Zimmerman G A, Esmon C, Bhattacharya J, Caller B, et al. (2003) Future research directions in acute lung injury: Summary of a National Heart, Lung, and Blood Institute working group. Am J Respir Crit. Care Med 167: 1027-1035). Semi-quantitative grading system was a 0-to-4 point grading system: 0=No injury, 1=25% injury in a light microscope field, 2=50% injury in a light microscope field, 3=75% injury in a light microscope field, 4= almost 100% injury in a light microscope field. Five light microscopic fields were analyzed for a particular pathological specimen to determine mice lung injury score.

Setting [5] is: vs. LPS aerosol/vehicle IP, listed as formula 1a.
Where [6] appears, read: reference compound, value in mM.

Molecule `CCCOC(=O)CCCC(Sc1ccccn1)C(=O)OC` (stereo not drawn) [AD-20, 2-(2-pyridylthio)-hexanedioic acid 1-methyl ester 6-propyl ester] registered a Max. tolerable dose in data set [1] (24 hrs, MTT) of 0.25 mM. The “Neutrophil Adhesion Inhibition IC50” value in data set [2] was “not significant”. For the same molecule, in data set [3], the half-maximal inhibitory concentration (IC50) stood at 0.178 ± 0.00081 mM.
In the same order, the values of `CCOC(=O)CCCCCCCC(Sc1ccccn1)C(=O)OC` (stereo not drawn) [AD-32, 2-(2-pyridylthio)-decanedioic acid-10-ethyl ester 1-methyl ester] are 0.25 mM, “not significant” and 0.1 ± 0.00096 mM.
As for `COc1ccc(C2CNC(=O)C2)cc1OC1CCCC1` (stereo not drawn) [Rolipram], in the data set on acute lung Injury model, the “Efficacious Dose” value is 5 mg/kg.
In the case of `CCCCCOC(=O)CCSc1ccccn1` [RS—Z, 3-(2-pyridylthio)propionic acid pentyl ester], the “Lung injury caused by bacterial polysaccharide challenge” value in data set [4] (10 mg/kg body weight) is given as “significantly reduced”. In data set [4] (10 mg/kg body weight intraperitoneally), the Pulmonary neutrophil infiltration result is recorded as “significantly alleviate”. In data set [4] (acute lung injury model, mice, i.p.), the “Efficacious Dose” value was 10 mg/kg. Moreover, the “Total cell counts in the BALF” value in data set [4] (post-treatment IP 0.1, 1, 10 mg/kg, vs. LPS aerosol/vehicle IP, FIG. 2A) is given as “dose-dependently reduced”. For the same molecule, the “Neutrophil count in the BALF / neutrophil influx in the lungs” value in data set [4] (vs. LPS aerosol/vehicle IP) is listed as “reduction of the neutrophil influx; also recorded: dose-dependently reduced”; in data set [4] (setting [5]), “Reduction of the neutrophil influx”. Further, the “Lung injury score / LPS-induced lung injury” value is recorded as “attenuation of the LPS-induced lung injury; also recorded: dose-dependently reduced” in data set [4] (vs. LPS aerosol/vehicle IP) and “Attenuation of the LPS-induced lung injury” in data set [4] (setting [5]). This molecule returned a Max. tolerable dose in data set [1] (24 hrs, MTT) of 0.5 mM. For the same molecule, the IC50 in data set [2] stood at 61 µM; in data set [3], 0.05 mM.
In data set [1] (24 hrs, MTT), `O=C(CCSc1ccccn1)OC1CCCCC1` [RS-21, 3-(2-pyridylthio)propionic acid cyclohexyl ester] displayed a Max. tolerable dose of 0.25 mM. For the same molecule, in data set [2], the “Neutrophil Adhesion Inhibition IC50” value is on record as “not significant”. In data set [3], the half-inhibitory concentration (IC50) was found to be 0.135 ± 0.00082 mM.
`CCCCOC(=O)CCSc1ccccn1` [RS-20, 3-(2-pyridylthio)propionic acid butyl ester] had a Max. tolerable dose in data set [1] (24 hrs, MTT) of 0.5 mM. Further, the half-maximal inhibitory concentration (IC50) was determined as 85 ± 0.94 µM in data set [2] and 0.079 ± 0.00073 mM in data set [3].
In turn, `CCCCCOC(=O)CCCC(Sc1ccccn1)C(=O)OC` (stereo not drawn) [AD—Z, 2-(2-pyridylthio)-hexanedioic acid-1-methyl ester 6-pentyl ester] gave a Max. tolerable dose in data set [1] (24 hrs, MTT) of 0.25 mM. Besides, the “Neutrophil Adhesion Inhibition IC50” value in data set [2] is reported as “not significant”. The half-inhibitory concentration (IC50) in data set [3] was determined as 0.085 ± 0.00152 mM.
Turning to `CCOC(=O)CCCCCCSc1ccccn1` [RS-32, 7-(2-pyridylthio)heptanoic acid ethyl ester], the Max. tolerable dose in data set [1] (24 hrs, MTT) turned out to be 0.5 mM. The IC50 in data set [2] was 94 ± 0.92 µM; in data set [3], 0.097 ± 0.00063 mM.
As to `Cc1c(C)c2c(c(C)c1O)CCC(C)(C[C@H]1O[C@H](CO)[C@@H](O)[C@H](O)[C@H]1O)O2` (stereo partly drawn) [Water-soluble Vitamin E derivative, (α-D-glucopyranosyl)methyl-2,5,7,8-(tetramethyl)chroman-6-ol], the “Efficacious Dose” value with acute lung Injury model is on record as 10 mg/kg.
The molecule `COC(=O)C(CCCC(=O)OC1CCCCC1)Sc1ccccn1` (stereo not drawn) [AD-21, 2-(2-pyridylthio)-hexanedioic acid 6-cyclohexyl ester 1-methyl ester] displayed a Max. tolerable dose in data set [1] (24 hrs, MTT) of 0.25 mM. Besides, the “Neutrophil Adhesion Inhibition IC50” value in data set [2] was “not significant”. Also, the IC50 in data set [3] was found to be 0.117 ± 0.00092 mM.
Take `O=C1CCC(N2C(=O)c3ccccc3C2=O)C(=O)N1` (stereo not drawn) [Thalidomide, α-N-phthalimidoglutarimide]: the “Efficacious Dose” value in the data set on acute lung Injury model was 100 mg/kg.
In turn, `CC(=O)N[C@@H](CS)C(=O)O` [NAC, N-acetyl cysteine, reference compound] showed a Max. tolerable dose in data set [1] (setting [6]) of 20 mM. Moreover, the “Neutrophil Adhesion Inhibition IC50” value in data set [2] is on record as “not significant”. For the same molecule, the IC50 in data set [3] (setting [6]) was 6.68 mM. In the data set with acute lung Injury model, the “Efficacious Dose” value is 150 mg/kg.
